Test results reported in patent US20120196824A1, “THERAPEUTIC AGENT FOR CEREBRAL INFARCTION” (MITSUBISHI TANABE PHARMA CORPORATION, priority 2009, published 2012).
Structures can show the parent of a compound that is named as a salt.

Assays:
[1] = molecular target: T1, Human-recombinant-S-Adenosyl-L-Homocysteine Hydrolase (Homo sapiens, UniProt P23526); test: Measurement of enzyme inhibitory activity (hydrolysis of S-Adenosyl-L-Homocysteine, HPLC); assay type: biochemical; conditions: S-Adenosyl-L-Homocysteine 10 μM, pH 7.2, 37° C., 15 min
T1 construct: purchased Diazyme Laboratories
How it was run: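 Reactions contained recombinant human SAH hydrolase (50 ng), 10 μM S-adenosyl-L-homocysteine and adenosine deaminase (4 units) in 50 mM phosphate buffer, pH 7.2, with 1 mM EDTA, run 15 min at 37 °C. Remaining substrate was measured by reversed-phase HPLC (UV 258 nm). Inhibitory rate compared substrate depletion with versus without compound.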

homocysteine synthesis = test: Measurement of homocysteine synthesis inhibitory activity in vivo (methionine-loaded mouse, plasma homocysteine); conditions: dose of 10 mg/kg, oral, BALB/c mouse; methionine water 1 hr later; plasma 30 min after; read-out: activity (homocysteine synthesis inhibitory rate)
Experimental: A sample was orally administered to BALB/c mouse and, 1 hr later, methionine water (50 g/L) was orally administered at a proportion of 10 ml/kg. 30 min later, blood samples were collected with heparin from the abdominal vein and plasma was obtained. The plasma homocysteine concentration was measured by treating the plasma with tributylphosphine, removing protein with 10% trichloroacetic acid (TCA), fluorescent labeling the supernatant with 4-fluoro-7-sulfobenzofurazan ammonium salt (SBD-F) under alkali conditions, and quantifying by HPLC. The homocysteine synthesis inhibitory rate of the sample was determined with the difference in the homocysteine value between methionine water-loaded animal and methionine water-unloaded animal as 100%. The detailed conditions of HPLC were as follows.
column used: Wakopak^R HandyODS 150*4.6 mm (Wako Pure Chemical Industries, Ltd.) elution condition: 1.0 ml/min elution solvent: 0.1M phosphate buffer (pH 6.0) 2% methanol wavelength: ex 385 nm em 515 nm

[2] = system: Mouse Ischemic Stroke Model; test: Infarct volume suppressive and motor function improving effects in mouse ischemic stroke model (Rose Bengal photothrombosis, TTC staining, Rota-rod); assay type: in vivo; conditions: dose of 10 mg/kg; for infarct volume suppression rate (%): two administrations, measured two days later, TTC staining; for walking time (%): walking time on Rota-Rod with Vehicle 100%, two days later
Experimental: Mouse was fixed under isoflurane anesthesia and the scalp was incised. Rose Bengal (7.5 mg/kg) was administered i.v., and green light (550 nm, Hamamatsu Photonics, K.K.) was immediately irradiated at 2 mm side and 1 mm above the bregma for 5 min. Thereafter, the scalp was bonded with an instant glue. To the test drug and control groups was given the first administration after the mice awoke, and they were subjected to the administration again the next day. Two days later, motor function was evaluated by Rota-rod (up to 60 sec, walking time on Rota-Rod was measured). Then the brain was removed, sliced in 1 mm, the site of infaction was decided by 1% TTC staining and the volume was measured by image analysis. The infarct volume suppression rate (%) and walking time (%) on Rota-Rod with Vehicle 100% at the dose of 10 mg/kg are shown in the following Table. In addition, walking time (sec) on Rota-Rod and infarct volume suppression rate (mm^3) when 3-deazaadenosine was used as a test drug are shown in FIG. 1 and FIG. 2.

T1 sequence (P23526 whole entry): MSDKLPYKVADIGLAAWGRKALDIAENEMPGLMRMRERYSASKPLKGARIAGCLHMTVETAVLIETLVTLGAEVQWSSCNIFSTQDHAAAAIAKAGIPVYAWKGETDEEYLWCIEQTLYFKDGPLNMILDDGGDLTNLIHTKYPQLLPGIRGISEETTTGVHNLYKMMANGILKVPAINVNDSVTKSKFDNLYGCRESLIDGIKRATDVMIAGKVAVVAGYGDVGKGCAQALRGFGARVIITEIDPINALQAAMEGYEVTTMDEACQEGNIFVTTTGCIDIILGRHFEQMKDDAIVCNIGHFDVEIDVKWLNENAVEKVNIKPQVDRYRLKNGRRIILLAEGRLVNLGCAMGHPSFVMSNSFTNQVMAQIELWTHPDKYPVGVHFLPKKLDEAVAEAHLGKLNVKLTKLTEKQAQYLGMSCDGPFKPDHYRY

Row | SMILES | IC50 [1] | inhibition in vivo at 10 mg/kg (homocysteine synthesis) | infarct volume suppression rate (%) [2] | walking time (%) [2]
1 | CCNCCNC(=O)CN(CC(=O)N(C)N1Cc2ccc(F)cc2C1)c1cc(-c2noc(C)n2)ccc1C.Cl [Example 20, N^2-{2-[(5-fluoro-1,3-dihydro-2H-isoindol-2-yl)(methyl)amino]-2-oxoethyl}-N^2-[2-methyl-5-(5-methyl-1,2,4-oxadiazol-3-yl)phenyl]-N^1-[2-(ethylamino)ethyl]glycinamide] | 39 nM | ≥ 40% | 26% | 240%
2 | CCNCCNC(=O)CN(CC(=O)N(C)N1Cc2ccc(F)cc2C1)c1cc2cnn(C)c2cc1C [Example 244, N^2-(1,6-dimethyl-1H-indazol-5-yl)-N^2-{2-[(5-fluoro-1,3-dihydro-2H-isoindol-2-yl)(methyl)amino]-2-oxoethyl}-N^1-[2-(ethylamino)ethyl]glycinamide hydrochloride] |  | ≥ 40% | 26% | 330%
3 | Nc1nccc2c1ncn2[C@@H]1O[C@H](CO)[C@@H](O)[C@H]1O [3-deazaadenosine, reference compound] |  |  | 14% | 170%
4 | CCNCCNC(=O)CN(CC(=O)N(C)N1Cc2ccc(F)cc2C1)c1cc2cnn(CC(F)F)c2cc1C [Example 253, N^2-[1-(2,2-difluoroethyl)-6-methyl-1H-indazol-5-yl]-N^2-{2-[(5-fluoro-1,3-dihydro-2H-isoindol-2-yl)(methyl)amino]-2-oxoethyl}-N^1-[2-(ethylamino)ethyl]glycinamide hydrochloride] | 20 nM | ≥ 40% | 16% | 230%
5 | CCNCCNC(=O)CN(CC(=O)N(C)N1Cc2ccccc2C1)c1ccc(-c2noc(C)n2)cc1C [Example 65, N^2-{2-[1,3-dihydro-2H-isoindol-2-yl(methyl)amino]-2-oxoethyl}-N^2-[2-methyl-4-(5-methyl-1,2,4-oxadiazol-3-yl)phenyl]-N^1-[2-(ethylamino)ethyl]glycinamide] | 47 nM | ≥ 40% | 30% | 250%
6 | CCNCCNC(=O)CN(CC(=O)N(C)N1Cc2ccc(F)cc2C1)c1cc2c(C)noc2cc1C [Example 183, N^2-(3,6-dimethyl-1,2-benzisoxazol-5-yl)-N^2-{2-[(5-fluoro-1,3-dihydro-2H-isoindol-2-yl)(methyl)amino]-2-oxoethyl}-N^1-[2-(ethylamino)ethyl]glycinamide dihydrochloride] |  |  | 22% | 240%
7 | CCNCCNC(=O)CN(CC(=O)N(C)N1Cc2ccc(F)cc2C1)c1cc2c(cc1C)CCC2=O [Example 215, N^2-{2-[(5-fluoro-1,3-dihydro-2H-isoindol-2-yl)(methyl)amino]-2-oxoethyl}-N^2-(6-methyl-3-oxo-2,3-dihydro-1H-inden-5-yl)-N^1-[2-(ethylamino)ethyl]glycinamide] | 47 nM | ≥ 40% | 19% | 340%
8 | Cc1nc(-c2ccc(C)c(N(CC(=O)NCCNC(C)C)CC(=O)N(C)N3Cc4ccc(F)cc4C3)c2)no1 [Example 21, N^2-{2-[(5-fluoro-1,3-dihydro-2H-isoindol-2-yl)(methyl)amino]-2-oxoethyl}-N^2-[2-methyl-5-(5-methyl-1,2,4-oxadiazol-3-yl)phenyl]-N^1-[2-(isopropylamino)ethyl]glycinamide] | 89 nM | ≥ 40% |  | 
9 | Cc1nc(-c2ccc(N(CC(=O)NCCNC(C)C)CC(=O)N(C)N3Cc4ccccc4C3)c(C)c2)no1 [Example 64, N^2-{2-[1,3-dihydro-2H-isoindol-2-yl(methyl)amino]-2-oxoethyl}-N^2-[2-methyl-4-(5-methyl-1,2,4-oxadiazol-3-yl)phenyl]-N^1-[2-(isopropylamino)ethyl]glycinamide] | 103 nM | ≥ 40% |  | 
10 | CCNCCNC(=O)CN(CC(=O)N(C)N1Cc2ccccc2C1)c1cc(-c2nn(C)c(=O)o2)ccc1C [Example 89, N^2-{2-[1,3-dihydro-2H-isoindol-2-yl(methyl)amino]-2-oxoethyl}-N^2-[2-methyl-5-(4-methyl-5-oxo-4,5-dihydro-1,3,4-oxadiazol-2-yl)phenyl]-N^1-[2-(ethylamino)ethyl]glycinamide] | 53 nM | 20 to 40% |  | 
11 | CCNCCNC(=O)CN(CC(=O)N(C)N1Cc2ccccc2C1)c1cc2cnn(C)c2cc1C [Example 241, N^2-{2-[1,3-dihydro-2H-isoindol-2-yl(methyl)amino]-2-oxoethyl}-N^2-(1,6-dimethyl-1H-indazol-5-yl)-N^1-[2-(ethylamino)ethyl]glycinamide hydrochloride] | 9 nM | ≥ 40% |  | 
12 | CCNCCNC(=O)CN(CC(=O)N(C)N1Cc2ccccc2C1)c1cc2onc(C)c2cc1C [Example 185, N^2-{2-[1,3-dihydro-2H-isoindol-2-yl(methyl)amino]-2-oxoethyl}-N^2-(3,5-dimethyl-1,2-benzisoxazol-6-yl)-N^1-[2-(ethylamino)ethyl]glycinamide] | 8 nM | ≥ 40% |  | 
